{"source": "patent US7485634B2", "about": "“Azepinoindole and pyridoindole derivatives as pharmaceutical agents” (Exelixis, Inc., priority 2002, dated 2009)", "key": {"[1]": {"target": "T1, full length human farnesoid X receptor (Homo sapiens, UniProt Q96RI1)", "T1 construct": "CMX-farnesoid X receptor (full length human farnesoid X receptor); expressed in transfected cells; host or cells: CV-1 African Green Monkey Kidney cells", "T1 sequence (Q96RI1 1-472 isoform Q96RI1-2)": "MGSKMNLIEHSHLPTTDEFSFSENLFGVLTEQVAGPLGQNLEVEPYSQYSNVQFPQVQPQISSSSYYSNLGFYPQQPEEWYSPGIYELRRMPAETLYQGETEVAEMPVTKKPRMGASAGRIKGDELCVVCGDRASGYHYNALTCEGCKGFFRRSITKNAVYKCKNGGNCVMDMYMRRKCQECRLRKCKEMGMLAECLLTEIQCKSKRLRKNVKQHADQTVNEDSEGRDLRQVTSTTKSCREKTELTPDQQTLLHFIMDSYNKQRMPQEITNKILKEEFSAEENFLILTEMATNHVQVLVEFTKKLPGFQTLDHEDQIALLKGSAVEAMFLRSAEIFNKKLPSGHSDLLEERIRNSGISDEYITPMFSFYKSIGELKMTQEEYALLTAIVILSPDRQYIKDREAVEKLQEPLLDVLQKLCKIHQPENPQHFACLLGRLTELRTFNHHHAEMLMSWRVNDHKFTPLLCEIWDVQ", "T1 sequence (P19793 1-462 partner)": "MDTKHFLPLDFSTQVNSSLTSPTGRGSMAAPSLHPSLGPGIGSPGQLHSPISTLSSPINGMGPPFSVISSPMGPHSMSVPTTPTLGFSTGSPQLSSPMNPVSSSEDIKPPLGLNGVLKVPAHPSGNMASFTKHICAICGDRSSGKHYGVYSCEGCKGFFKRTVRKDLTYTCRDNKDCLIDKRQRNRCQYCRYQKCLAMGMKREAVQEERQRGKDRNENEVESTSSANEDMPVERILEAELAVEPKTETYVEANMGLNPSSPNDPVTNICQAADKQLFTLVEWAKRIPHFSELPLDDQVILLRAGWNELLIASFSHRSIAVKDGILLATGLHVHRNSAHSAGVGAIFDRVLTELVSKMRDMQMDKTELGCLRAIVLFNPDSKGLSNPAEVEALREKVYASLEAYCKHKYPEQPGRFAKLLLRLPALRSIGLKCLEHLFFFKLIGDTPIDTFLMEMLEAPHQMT", "test": "farnesoid X receptor/ECREx7 co-transfection assay (luciferase reporter, CV-1 cells)", "format": "cell-based", "settings": "read-out: agonist activity EC50", "experimental": "The basic co-transfection protocol for measuring the farnesoid X receptor activity is as follows. CV-1 African Green Monkey Kidney cells were plated 24 hours before transfection to achieve approximately 70-80 percent confluency. Cells were transfected with the following expression vectors, CMX-farnesoid X receptor (full length human farnesoid X receptor), CMX-RXRα (full length human RXR), Luc12 (ECREx7-Tk-Luciferase) luciferase reporter gene construct. (See WO 00/76523, Venkateswaran et al., (2000) J. Biol. Chem. 275 14700-14707). A CMX-β-Galactosidase expression vector was used as a transfection control. The transfection reagent used was DOTAP (Boehringer Mannheim). Cells were incubated with the DOTAP/DNA mixture for 5 hours after which the cells were harvested and plated onto either 96 well or 384 well plates containing the appropriate concentration of test compound. The assay was allowed to continue for an additional 18-20 hours, after which the cells were lysed, with lysis buffer (1% triton X 100, 10% glycerol, 5 mM Dithiothreitol, 1 mM EGTA, 25 mM Tricine, pH 7.8) and the luciferase activity measured in the presence of Luciferase assay buffer (0.73 mM ATP, 22.3 mM Tricine, 0.11 mM EGTA, 0.55 mM Luciferin, 0.15 mM Coenzyme A, 0.5 mM HEPES, 10 mM Magnesium sulphate) on a standard luminomter plate reader (PE Biosystems, NorthStar Reader), using recommended operating instructions and conditions.\nBoth the farnesoid X receptor/ECREx7 co-transfection assay (Example 76) and the TR-FRET assay (Example 75) can be used to establish the EC50/IC50 values for potency and percent activity or inhibition for efficacy. Efficacy defines the activity of a compound relative to a high control (chenodeoxycholic acid, CDCA) or a low control (DMSO/vehicle). The dose response curves are generated from an 8 point curve with concentrations differing by ½ LOG units. Each point represents the average of 4 wells of data from a 384 well plate. The curve for the data is generated by using the equation: Y=Bottom+(Top−Bottom)/(1+10^((LogEC50−X)*HillSlope))\nThe EC50/IC50 is therefore defined as the concentration at which an agonist or antagonist elicits a response that is half way between the Top (maximum) and Bottom (baseline) values. The EC50/IC50 values represented are the averages of at least 3 independent experiments. The determination of the relative efficacy or % control for an agonist is by comparison to the maximum response achieved by chenodeoxycholic acid that is measured individually in each dose response experiment.\nFor the antagonist assay, CDCA is added to each well of a 384 well plate to elicit a response. The % inhibition for each antagonist is therefore a measurement of the inhibition of the activity of CDCA."}, "farnesoid X receptor": {"target": "T2, farnesoid X receptor (Homo sapiens, UniProt Q96RI1)", "T2 construct": "fused on or other part: GST fused in frame to the N-terminus of the LBD (TR-FRET assay only); Nothing is fused on in the co-transfection assay", "T2 sequence (Q96RI1 244-471 isoform Q96RI1-2 limits assumed)": "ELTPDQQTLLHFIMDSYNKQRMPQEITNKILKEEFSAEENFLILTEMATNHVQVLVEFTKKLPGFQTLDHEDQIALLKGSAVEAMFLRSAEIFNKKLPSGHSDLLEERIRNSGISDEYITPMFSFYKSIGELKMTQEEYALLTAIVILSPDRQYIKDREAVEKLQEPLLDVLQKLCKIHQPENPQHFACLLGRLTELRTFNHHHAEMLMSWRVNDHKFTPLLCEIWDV", "test": "one or more of the in vitro assays described herein (TR-FRET assay, Example 75; co-transfection assay, Example 76)", "settings": "for inhibition / IC50: inhibition of the activity of CDCA; for inhibition: 100% = baseline (DMSO only); for IC50: read-out: IC50 (antagonist / partial agonist); for EC50: one or more of the in vitro assays, read-out: EC50 (agonist / partial agonist); for Emax: relative to maximum response of chenodeoxycholic acid (CDCA), read-out: efficacy", "protocol": "(Wallac/PE Life Sciences, Cat# AD0059A) in FRET assay buffer (20 mM KH2PO4/K2HPO4 (pH 7.3), 150 mM NaCl, 2 mM CHAPS, 2 mM EDTA, 1 mM DTT) in the presence of the test compound(s) for 2-4 hours at room temperature in a 384 well assay plate. Data was collected using an LJL Analyst using the standard operating instructions and conditions with readings at emission wavelengths of 615 nm and 665 nm after a delay of 65 ps and an excitation wavelength of 330 nm.\nThe basic co-transfection protocol for measuring the farnesoid X receptor activity is as follows. CV-1 African Green Monkey Kidney cells were plated 24 hours before transfection to achieve approximately 70-80 percent confluency. Cells were transfected with the following expression vectors, CMX-farnesoid X receptor (full length human farnesoid X receptor), CMX-RXRα (full length human RXR), Luc12 (ECREx7-Tk-Luciferase) luciferase reporter gene construct. […] A CMX-β-Galactosidase expression vector was used as a transfection control. The transfection reagent used was DOTAP (Boehringer Mannheim). Cells were incubated with the DOTAP/DNA mixture for 5 hours after which the cells were harvested and plated onto either 96 well or 384 well plates containing the appropriate concentration of test compound. The assay was allowed to continue for an additional 18-20 hours, after which the cells were lysed, with lysis buffer (1% triton X 100, 10% glycerol, 5 mM Dithiothreitol, 1 mM EGTA, 25 mM Tricine, pH 7.8) and the luciferase activity measured in the presence of Luciferase assay buffer (0.73 mM ATP, 22.3 mM Tricine, 0.11 mM EGTA, 0.55 mM Luciferin, 0.15 mM Coenzyme A, 0.5 mM HEPES, 10 mM Magnesium sulphate) on a standard luminomter plate reader (PE Biosystems, NorthStar Reader), using recommended operating instructions and conditions."}, "normal mice": {"test_system": "normal mice", "test": "In vivo plasma lipid profile, normal mice, one week of daily oral dosing", "set-up": "species or system mouse", "experimental": "To compare the effects of compounds on plasma lipid profiles, including but not limited to cholesterol and triglycerides, animals were dosed with compound for one week and plasma lipid levels monitored throughout the study. Male C57BL/6 mice (n=8) were dosed daily by oral gavage with vehicle or compound. Plasma samples were taken on day −1 (in order to group animals), day 1, 3, and 7. Samples were collected three hours after the daily dose. On day 7 of the study, following plasma collection, animals were euthanized and tissues, such as liver and intestinal mucosa were collected and snap frozen for further analysis. Plasma was analyzed for lipid parameters, such as total cholesterol, HDL cholesterol and triglyceride levels. RNA was extracted from frozen tissues for later analysis by quantitative real time PCR for regulation of key target genes. To identify specificity of target gene regulation by the farnesoid X receptor, knockout mice and C57BL/6 wild-type controls maybe used in this same protocol."}, "[2]": {"test_system": "low density lipoprotein receptor deficient mice (LDLR^−/−)", "test": "In vivo model of hyperlipidemia and atherosclerosis: LDLR−/− mice consuming a western diet", "set-up": "species or system mouse"}, "db/db mouse": {"test_system": "db/db mouse", "test": "In vivo model of diabetes and dyslipidemia: db/db mouse", "settings": "once daily 10 mg/kg for one week"}, "[3]": {"settings": "10 mg/kg daily dosing for one week"}, "[4]": {"settings": "one week of daily dosing at 10 mg/kg"}}}
{"smiles": "CCOC(=O)C1=CN(C(=O)c2cccc(F)c2)CCc2c1[nH]c1ccccc21", "note": "[3-(3-fluorobenzoyl)-1,2,3,6-tetrahydroazepino[4,5-b]indole-5-carboxylic acid ethyl ester]", "values": [{"measurement": "EC50", "setting": "[1]", "result": "< 1000", "unit": "nM"}]}
{"smiles": "O=C(NC1CCC1)C1=CN(C(=O)c2ccc(F)cc2)CCc2c1[nH]c1ccccc21", "note": "[3-(4-fluorobenzoyl)-1,2,3,6-tetrahydroazepino[4,5-b]indole-5-carboxylic acid cyclobutylamide]", "values": [{"measurement": "EC50", "setting": "[1]", "result": "< 1000", "unit": "nM"}]}
{"smiles": "CCOC(=O)C1=CN(C(=O)c2ccc(F)cc2)CC(C)(C)c2c1[nH]c1cc(OC(=O)NC3CC3)ccc21", "note": "[8-cyclopropylcarbamoyloxy-3-(4-fluorobenzoyl)-1,1-dimethyl-1,2,3,6-tetrahydroazepino[4,5-b]indole-5-carboxylic acid ethyl ester]", "values": [{"measurement": "inhibition", "setting": "farnesoid X receptor", "result": 100, "unit": "%"}, {"measurement": "IC50", "setting": "farnesoid X receptor", "result": "< 100", "unit": "nM"}]}
{"smiles": "CCOC(=O)C1=CN(C(=O)c2ccc(F)cc2)CC(C)(C)c2c1[nH]c1ccc(N(Cc3ccccc3)C(=O)N(C)C)cc21", "note": "[9-(1-benzyl-3,3-dimethyl-ureido)-3-(4-fluoro-benzoyl)-1,1-dimethyl-1,2,3,6-tetrahydro-azepino[4,5-b]indole-5-carboxylic acid ethyl ester]", "values": [{"measurement": "inhibition", "setting": "farnesoid X receptor", "result": 100, "unit": "%"}, {"measurement": "IC50", "setting": "farnesoid X receptor", "result": "< 100", "unit": "nM"}]}
{"smiles": "CCOC(=O)C1=CN(C(=O)c2ccc(F)cc2)CC(C)(C)c2c1[nH]c1ccc(F)cc21", "note": "[9-Fluoro-3-(4-fluoro-benzoyl)-1,1-dimethyl-1,2,3,6-tetrahydro-azepino[4,5-b]indole-5-carboxylic acid ethyl ester]", "values": [{"measurement": "EC50", "setting": "farnesoid X receptor", "result": "< 100", "unit": "nM"}, {"measurement": "Emax", "setting": "farnesoid X receptor", "result": "> 100", "unit": "%"}]}
{"smiles": "CCOC(=O)C1=CN(C(=O)c2ccc(F)c(F)c2)CC(C)(C)c2c1[nH]c1ccccc21", "note": "[ethyl 3-(3,4-difluorobenzoyl)-1,1-dimethyl-1,2,3,6-tetrahydroazepino[4,5-b]indole-5-carboxylate]", "values": [{"measurement": "Emax", "setting": "farnesoid X receptor", "result": "> 100", "unit": "%"}, {"measurement": "plasma HDL-cholesterol levels", "setting": "normal mice; [3]", "result": "without affecting"}, {"measurement": "plasma non-HDL cholesterol", "setting": "normal mice; [3]", "result": "significant lowering"}, {"measurement": "plasma total cholesterol", "setting": "normal mice; [3]", "result": "decreased"}, {"measurement": "plasma triglyceride levels", "setting": "normal mice; once daily dosing at 0.1-10 mg/kg for one week", "result": "significantly reduced"}, {"measurement": "decrease of plasma total cholesterol levels", "setting": "[2]; [4]", "result": "~50", "unit": "%"}, {"measurement": "non-HDL cholesterol", "setting": "[2]; [4]", "result": "decrease"}, {"measurement": "reduction of plasma triglycerides", "setting": "[2]; [4]", "result": "greater than 50%"}, {"measurement": "plasma free fatty acid concentration", "setting": "[2]; treatment with compound", "result": "attenuated"}, {"measurement": "plasma glucose concentration", "setting": "[2]; treatment with compound", "result": "attenuated"}, {"measurement": "plasma free fatty acid levels", "setting": "db/db mouse", "result": "declines"}, {"measurement": "reduction in non-HDL cholesterol", "setting": "db/db mouse", "result": "approximately 50%"}, {"measurement": "reduction in plasma triglycerides", "setting": "db/db mouse", "result": "approximately 50%"}]}
{"smiles": "CCOC(=O)C1=CN(C(=O)c2ccc(F)c(F)c2)CC(C)c2c1[nH]c1ccccc21", "note": "(stereo not shown) [ethyl 3-(3,4-difluorobenzoyl)-1-methyl-1,2,3,6-tetrahydroazepino[4,5-b]indole-5-carboxylate]", "values": [{"measurement": "EC50", "setting": "farnesoid X receptor", "result": "< 100", "unit": "nM"}, {"measurement": "Emax", "setting": "farnesoid X receptor", "result": "> 100", "unit": "%"}]}
{"smiles": "CC(C)OC(=O)C1=CN(C(=O)c2ccc(F)c(F)c2)CC(C)(C)c2c1[nH]c1ccccc21", "note": "[isopropyl 3-(3,4-difluorobenzoyl)-1,1-dimethyl-1,2,3,6-tetrahydroazepino[4,5-b]indole-5-carboxylate]", "values": [{"measurement": "Emax", "setting": "farnesoid X receptor", "result": "> 100", "unit": "%"}]}
{"smiles": "CC(C)OC(=O)C1=CN(C(=O)c2ccc(F)c(F)c2)CC(C)c2c1[nH]c1ccccc21", "note": "(stereo not shown) [isopropyl 3-(3,4-difluorobenzoyl)-1-methyl-1,2,3,6-tetrahydroazepino[4,5-b]indole-5-carboxylate]", "values": [{"measurement": "EC50", "setting": "farnesoid X receptor", "result": "< 100", "unit": "nM"}, {"measurement": "Emax", "setting": "farnesoid X receptor", "result": "> 100", "unit": "%"}]}
{"smiles": "CCCOC(=O)C1=CN(C(=O)c2ccc(F)cc2)C(C)Cc2c1[nH]c1ccccc21", "note": "(stereo not shown) [n-propyl 3(4-fluorobenzoyl)-2-methyl-1,2,3,6-tetrahydroazepino[4,5-b]indole-5-carboxylate]", "values": [{"measurement": "EC50", "setting": "[1]", "result": "< 1000", "unit": "nM"}]}
{"smiles": "CCCOC(=O)C1=CN(C(=O)c2ccc(F)cc2)C(C)Cc2c1[nH]c1cc(F)ccc21", "note": "(stereo not shown) [n-propyl 3(4-fluorobenzoyl)-2-methyl-8-fluoro-1,2,3,6-tetrahydroazepino[4,5-b]indole-5-carboxylate]", "values": [{"measurement": "EC50", "setting": "[1]", "result": "< 1000", "unit": "nM"}]}
